Test systems include Lac3; Lac1; Lac2.
Settings in all cases: McIlvaine buffer at optimum pH (3.0); ABTS 125-5000 uM; O2 as co-substrate

Where a name gives a salt, the structure may show the parent alone.

The Km is the substrate concentration at which the rate is half of its maximum. As for `CCn1c(=NN=c2sc3cc(S(=O)(=O)O)ccc3n2CC)sc2cc(S(=O)(=O)O)ccc21` [ABTS, 2,2′-azino-bis(3-ethylbenzothiazoline-6-sulfonic acid) diammonium salt], the Km in the assay with Lac3 worked out at 104 µM; with Lac1 it was 160 µM; with Lac2 it was 550 µM.

(Values after paper PMC6273344, “Biochemical Characteristics of Three Laccase Isoforms from the Basidiomycete Pleurotus nebrodensis” (Molecules, 2015).)
